The source of these data is patent US20090286837A1, “Oxadiazole compounds as urokinase inhibitors” (priority 2005, published 2009).

The test system of the assay is BN-472 metastasizing breast tumor. The assay is described as follows: anti-tumor and anti-metastatic efficacy in the BN-472 metastasizing breast tumor model. It is filed as in vivo, brown Norwegian rats. The following applies: oral administration, daily doses of 0.2 or 2 mg/kg for three weeks, rats. The method, then: Experiments were carried out in order to investigate the anti-tumor efficacy and anti-metastatic efficacy of WX-771, WX-780 and WX-781.
The assay system used was the BN-472 metastasizing breast tumor in brown Norwegian rats. The kind of tumor tissue used is described, for example, in Kort et al., J. Natl. Cancer Inst. 72 (1984) 709-713. The rats were purchased from Harlan Nederland, NL 5960-AD Horst, the Netherlands, and were from six to eight weeks old with a weight of from 128 g to 170 g.
(4-Chlorobenzylsulfonyl-D-Ser-Gly-4-guanidinobenzyl-amide, hydrochloride salt) whose anti-tumor and anti-metastatic efficacy with subcutaneous injection had been disclosed was also studied for comparative purposes. For administration, 0.75 mg of WX-340 was dissolved in 20 ml of 5% (weight/volume) D-manitol in water and administered by subcutaneous injection in doses of 0.2 mg of drug/kg of rat.
A phosphatidylcholine vehicle was administered as control and was obtained by introducing 400 mg of soya phosphatidylcholine in 20 ml of phosphate-buffered saline and 400 μl of absolute ethanol. 0.8 ml of the suspension was administered orally to the rats as control.
WX-771 (7.5 mg) was introduced into 20 ml of a soya phosphatidylcholine solution as used also for the control. To administer 2 mg/kg, 0.8 ml of this suspension was administered orally. For a second group, the stock solution was diluted 1:10 to obtain a dose of 0.2 mg/kg when administering likewise 0.8 ml per rat.
WX-780 (7.5 mg) was introduced into 20 ml of a soya phosphatidylcholine suspension according to the above-described control suspension. To administer a dose of 2 mg/kg, the rats were given 0.8 ml of said suspension. To administer a dose of 0.2 mg/kg, the stock solution was diluted 1:10, with 0.8 ml per rat still being administered.
WX-781 (7.5 mg) was introduced into 20 ml of a soya phosphatidylcholine suspension according to the above-described control suspension. To administer a dose of 2 mg/kg, the rats were given 0.8 ml orally. To administer a dose of 0.2 mg/kg, the stock solution was diluted 1:10, with 0.8 ml/rat still being administered orally.

As to `CC(C)(C)C(=O)OC[C@@H](NS(=O)(=O)Cc1ccc(Cl)cc1)C(=O)NCC(=O)NCc1ccc(NC(=N)NOC(=O)C(C)(C)C)cc1` [WX-771], the anti-metastatic action result was “significant” and the anti-tumor action result was “significant”.

For `C[C@@H](C(=O)NCc1ccc(Nc2noc(C(C)(C)C)n2)cc1)N(C)C(=O)[C@@H](COC(=O)C(C)(C)C)NS(=O)(=O)Cc1ccc(Cl)cc1` [WX-780], the anti-metastatic action entry is listed as “significant” and the anti-tumor action entry is recorded as “significant”.

As for `CC(C)(C)C(=O)OC[C@@H](NS(=O)(=O)Cc1ccc(Cl)cc1)C(=O)NCC(=O)NCc1ccc(Nc2noc(C(C)(C)C)n2)cc1` [WX-781], the anti-metastatic action entry is “significant” and the anti-tumor action entry is listed as “significant”.
